Residues, ends and D or L forms follow the SMILES beside them.
How the values were obtained:
[1] = tested on: E. coli cytoplasmic or inner membrane; assay: Membrane depolarization assay (DiSC3(5)); assay type: cell-based, Escherichia coli; details: DiSC3(5) 0.4 µM, 0.2 mM EDTA, 10^6 CFU/mL mid-log cells, HEPES-glucose buffer; peptide 1 to 10 µM
Procedure: The membrane depolarization of E. coli cells was determined using a potentiometric fluorescent probe DiSC3(5), as described elsewhere. Briefly, mid-log phase E. coli cells were diluted to 10^6 CFU/mL in the same HEPES-glucose buffer and were incubated with DiSC3(5) and EDTA at 0.4 µM and 0.2 mM concentrations, respectively, for 1 h in the dark at 37 °C, till the maximum uptake of the probe occurred. Increasing concentrations of the studied peptides from 1 µM to 10 µM were then added to these dye-loaded cells in a quartz cuvette, and the fluorescence intensity was measured on spectrofluorimeter (Shimadzu RF-5301 PC) set as excitation at 622 nm and emission at 670 nm. The increase in fluorescence intensity accounted for the dissipation of membrane potential caused due to peptide treatment. Cells treated with 10 µM melittin were used as a positive control. Simultaneously, the dye-loaded cells were plated onto LB agar to estimate bacterial cell death.

[2] = tested on: LPS from E. coli O55:B5; assay: LPS binding assay (BODIPY-TR-cadaverine displacement); set-up: species or system Escherichia coli; details: BC displacement, LPS 50 μg/mL, 5 µM BC, 50 mM Tris buffer pH 7.4, peptide 0.25 to 20 µM, Hill equation fit, mean Kd ± SD of two independent experiments, read-out: Kd (dissociation constant) with LPS
Procedure: The binding of α-MSH and its analogues to LPS was checked using BODIPY-TR-cadaverine (BC) as a fluorescent probe[24],[42]. BC fluorescence decreases when bound to cell-free LPS and increases when it is freely accessible in solution. LPS (50 μg/mL) from E. coli O55:B5 (Sigma-Aldrich, India) was incubated with 5 µM of BC in 50 mM Tris buffer (pH 7.4) for 4 h. Next, 800 µL of this LPS-BC mixture was added to varying concentrations (0.25 µM to 20 µM) of the peptides in a quartz cuvette, and the BC fluorescence was measured on a spectrofluorimeter (Shimadzu RF-5301 PC) with excitation at 580 nm and emission at 620 nm. Each experiment was done in duplicate independently. Increase in fluorescence intensities with increase in concentration of peptides were plotted and the dissociation constant (Kd) was calculated from each individual data set and is presented as mean value ± SD using Igor Pro 6.36 (Y = Bmax × Xˆh/(Kdˆh + Xˆh); where X: concentration of peptide (µM), Y: fluorescence intensity (a.u.), h: Hill slope)[43]. The molecular mass of LPS was taken as 20,000 Da as described elsewhere, and its concentration was calculated accordingly.
Table S1: The dissociation constant (Kd) of α-MSH and its analogues with LPS. […]

[3] = tested on: E. coli ATCC 25922; assay: Transmission electron microscopy (TEM) of treated cells; assay type: cell-based, Escherichia coli; details: 100 µM peptide, 2 h, 37 °C, 10^8 CFU/mL mid-log cells
Procedure: To detect ultra-structural changes in E. coli on peptide treatment, TEM was used[16]. In brief, the mid-log E. coli cells (10^8 CFU/mL) were exposed with 100 µM concentration of all peptides independently for 2 h at 37 °C. After treatment, the cells were washed with PB buffer and fixed with 2.5% glutaraldehyde overnight at 4 °C. Next, the samples were post-fixed in 1.0% OsO4 and stained with uranyl acetate. After fixation, cells were dehydrated in a series of graded acetone and embedded in epoxy resin. Thin sections were made using a microtome (Leica EM UC6), which were transferred onto copper grids and stained with uranyl acetate followed by lead citrate. Samples were viewed via a transmission electron microscope (JEOL 2100F) to detect the ultrastructural and other morphological changes in the bacterial cells.

[4] = tested on: E. coli ATCC 25922; assay: Killing assay (killing kinetics), logarithmic phase cells; assay type: cell-based, Escherichia coli; details: for concentration at which a bactericidal effect (> 3 log reduction) was achieved: logarithmic phase E. coli cells (Fig. 1); for log reduction in cell viability: average ± SE, SEM
Procedure: For this study, a well-characterized strain of E. coli (ATCC 25922) was used. The strain was stored at − 80 °C in 15% (v/v) glycerol until sub-cultured onto LB agar plates for use.
The antibacterial activity of α-MSH and its cationic analogues was determined against both logarithmic (2–3 h) and stationary (16–18 h) phase of E. coli cells in LB medium. The bacterial suspension was pelleted, washed, and diluted in HEPES-glucose buffer (5 mM HEPES, 20 mM glucose, pH 7.4) to adjust the cell density by measuring the OD = 0.5 (10^8 CFU/mL) at 600 nm using a spectrophotometer. This suspension was used to obtain the desired inoculum sizes (10^5 CFU/mL, 10^6 CFU/mL, and 10^7 CFU/mL). The inoculums were exposed to various concentrations of peptides (1 µM, 2 µM, 5 µM, and 10 µM) and incubated at 37 °C. Untreated E. coli cells were also included as a control. At selected time points (0 min, 15 min, 30 min, 60 min, and 120 min), aliquots were taken out, and survival of E. coli cells was determined by quantitative plating on LB agar after appropriate dilution in the same buffer. The plates were incubated overnight at 37 °C, followed by colony counting. Each experiment was performed at least three times on three independent days.

[5] = tested on: E. coli cells; assay: LPS competitive inhibition assay; assay type: cell-based, Escherichia coli; details: peptide fixed at 10 µM, free LPS beyond 128 µg/mL; 10^5 CFU/mL mid-log cells, 90 min, 37 °C; peptide without LPS = 100% mortality
Procedure: To determine whether LPS could influence the peptide’s antimicrobial activity, the potency of the most charged analogue, KKK-MSH, was evaluated against E. coli in the presence of LPS, using the protocol reported elsewhere. Peptide and LPS from E. coli […] (Sigma-Aldrich, India) in equal volume (50 µL) were incubated in a 96-well sterile plate at 37 °C for 1 h. After that, 100 μL of mid-log E. coli cells were added (at a final concentration of 10^5 CFU/mL) to the LPS-peptide mixture for 90 min at 37 °C. The peptide concentration was kept constant at 10 µM, and the concentration of LPS was varied from 2 to 1024 μg/mL. After incubation, 50 μL of the reaction mixture from each well was diluted with an appropriate amount of HEPES-glucose buffer, spread on LB agar plates, and kept at 37 °C for 16 h. Then on the next day, colonies were counted and compared with control (in the absence of LPS, cells treated with only peptide were considered 100% mortal). Mortality was calculated using the following formula: %survival=CFU/mLintreatedsample/CFU/mLinuntreatedsample×100Cellmortality(%)=100-%survival

`CSCC[C@H](NC(=O)[C@H](CCCCN)NC(=O)[C@H](Cc1ccc(O)cc1)NC(=O)[C@H](CCCCN)NC(C)=O)C(=O)N[C@@H](CCCCN)C(=O)N[C@@H](Cc1c[nH]cn1)C(=O)N[C@@H](Cc1ccccc1)C(=O)N[C@@H](CCCNC(=N)N)C(=O)N[C@@H](Cc1c[nH]c2ccccc12)C(=O)NCC(=O)N[C@@H](CCCCN)C(=O)N1CCC[C@H]1C(=O)N[C@H](C(N)=O)C(C)C` [KKK-MSH] (Ac-KYKMKHFRWGKPV-NH2) was tested, and the “lowest concentration that induced depolarization of E. coli inner membrane” value [1] was 2 µM, the Kd [2] was 9.8 ± 6.3 µM and the “ultrastructural changes by TEM, in words” value [3] was “complete collapse of the E. coli membrane”. For the same compound, the “concentration at which a bactericidal effect (> 3 log reduction) was achieved” value [4] was 1 µM, the “incubation time to complete eradication of the cells” value (from here on “incubation time … of the cells”) ([4]; logarithmic phase, 10^5 CFU/mL, HEPES-glucose buffer, 37 °C, peptide 1 µM) was no more than 15 min and the “incubation time … of the cells” value ([4]; logarithmic phase, 10^5 CFU/mL, HEPES-glucose buffer, 37 °C, peptide 2 µM) was no more than 15 min. The “log reduction in cell viability (bactericidal effect)” value ([4]; logarithmic phase, 10^5 CFU, peptide 1 µM, within 15 min) was greater than 3 log, the “complete eradication of the cells, in words” value ([4]; logarithmic phase, 10^6 CFU/mL, peptide 1 µM) was “not at 1 µM concentration” and the “incubation time … of the cells” value ([4]; logarithmic phase, 10^6 CFU/mL, peptide 2 µM) was 60 min. For the same compound, the “incubation time … of the cells” value ([4]; logarithmic phase, 10^6 CFU/mL, peptide 5 µM) was 30 min, the “incubation time … of the cells” value ([4]; logarithmic phase, 10^6 CFU/mL, peptide 10 µM) was 15 min and the “incubation time to no viable cells” value ([4]; logarithmic phase, 10^7 CFU/mL, peptide 10 µM) was 1 h. The “lowest concentration at which the bactericidal effect was maintained” value ([4]; logarithmic phase, high cell density) was 2 µM and the “killing of E. coli cells in the presence of free LPS” value [5] was “less than 20%”.
For `CSCC[C@H](NC(=O)[C@H](CCCCN)NC(=O)[C@H](Cc1ccc(O)cc1)NC(=O)[C@H](CCCCN)NC(C)=O)C(=O)N[C@@H](C)C(=O)N[C@@H](Cc1c[nH]cn1)C(=O)N[C@@H](Cc1ccccc1)C(=O)N[C@@H](CCCNC(=N)N)C(=O)N[C@@H](Cc1c[nH]c2ccccc12)C(=O)NCC(=O)N[C@@H](CCCCN)C(=O)N1CCC[C@H]1C(=O)N[C@H](C(N)=O)C(C)C` [KKA-MSH] (Ac-KYKMAHFRWGKPV-NH2), the “lowest concentration that induced depolarization of E. coli inner membrane” value [1] was 2 µM, the “ultrastructural changes by TEM, in words” value [3] was “complete collapse of the E. coli membrane” and the “concentration at which a bactericidal effect (> 3 log reduction) was achieved” value [4] was 5 µM. For the same compound, the “log reduction in cell viability” value ([4]; logarithmic phase, 10^5 CFU/mL, HEPES-glucose buffer pH 7.4, 37 °C, peptide 1 µM, 1 h, three independent experiments) was 1.8 ± 0.1 log, the “log reduction in cell viability” value ([4]; logarithmic phase, 10^5 CFU/mL, HEPES-glucose buffer pH 7.4, 37 °C, peptide 1 µM, 2 h, three independent experiments) was 2.1 ± 0.1 log and the “log reduction in cell viability” value ([4]; logarithmic phase, 10^5 CFU/mL, HEPES-glucose buffer pH 7.4, 37 °C, peptide 2 µM, 1 h, three independent experiments) was 2.7 ± 0.3 log. For the same compound, the “log reduction in cell viability” value ([4]; logarithmic phase, 10^5 CFU/mL, HEPES-glucose buffer pH 7.4, 37 °C, peptide 2 µM, 2 h, three independent experiments) was 2.9 ± 0.2 log, the “change of killing activity at 5 µM against lower concentrations, in words” value ([4]; logarithmic phase, 10^5 CFU/mL, peptide 5 µM) was “no change in its activity” and the “bactericidal effect (> 3 log reduction), in words” value ([4]; logarithmic phase, 10^5 CFU/mL, peptide 2, 5 and 10 µM, 1 h of incubation) was “accomplished bactericidal effect”. For the same compound, the “log reduction in cell viability” value ([4]; logarithmic phase, 10^6 CFU/mL, peptide 10 µM, 2 h, three independent days) was 3.5 ± 0.2 log and the “log reduction in cell viability” value ([4]; logarithmic phase, 10^7 CFU/mL, peptide 10 µM, 2 h, three independent days) was 2.7 ± 0.02 log.

— article PMC8821551, “Binding of cationic analogues of α-MSH to lipopolysaccharide and disruption of the cytoplasmic membranes caused bactericidal action against Escherichia coli” (Scientific Reports, 2022)
